Target: T1, KSP(367H) (Homo sapiens, UniProt P52732)
T1 construct: Add 18.75 μl of 4 μM stock nucleotide-free KSP(367H)
T1 sequence (P52732 1-367 limits assumed): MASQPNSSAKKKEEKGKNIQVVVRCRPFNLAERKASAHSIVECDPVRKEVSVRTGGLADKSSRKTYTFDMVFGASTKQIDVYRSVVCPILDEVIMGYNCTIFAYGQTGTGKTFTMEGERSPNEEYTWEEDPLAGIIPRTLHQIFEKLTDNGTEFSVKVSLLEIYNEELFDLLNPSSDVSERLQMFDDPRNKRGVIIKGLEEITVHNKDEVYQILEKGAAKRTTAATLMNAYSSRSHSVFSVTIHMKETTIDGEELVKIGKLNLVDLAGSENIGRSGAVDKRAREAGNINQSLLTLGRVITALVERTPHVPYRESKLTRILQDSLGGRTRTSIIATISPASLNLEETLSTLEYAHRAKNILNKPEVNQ
Test: Fluorescence of Trp127 of KSP -/+ inhibitors (in vitro binding assay for the novel KSP binding site)
Method: The binding of a ligand to the novel binding site of the instant invention and the formation of the novel binding pocket as a result can als6 be indirectly assessed by spectroscopically determining the shift in the fluorescence of the amino acid 127 tryptophan residue. Thus it has been discovered that the fluorescent emission of Trp127 is modulated when KSP is treated with one of the inhibitors described above in the presence of a nucleotide or nucleotides.
A further embodiment of the instant invention is an in vitro assay for the determination of binding of a test compound to the novel KSP binding site described herein. The assay comprises the steps of: • 1. contacting KSP with the test compound and a nucleotide and measuring the fluorescence of the mixture at the peak emission wavelength for Trp127 in KSP; • 2. contacting KSP with a nucleotide and measuring the fluorescence of the mixture at the peak emission wavelength for Trp127 in KSP; and • 3. comparing the fluorescence of the mixture of KSP, the test compound and the nucleotide with the fluorescence of the mixture of KSP with the nucleotide alone.
In another embodiment of the in vitro fluorescence assay the nucleotide is selected from ADP and AMPPNP (a non-hydrolysable analog of ATP, adenosine 5′-(β,γ-imido)triphosphate tetralithium salt hydrate).
• 2× kinesin buffer: 160 mM K-Hepes, 2 mM MgCl2, 2 mM EGTA, 2 mM DTT (added fresh daily), and 100 mM KCl, pH 6.8. • Nucleotide: nucleotide is resuspended to 200 mM in 50 mM K-Hepes (pH 6.8). • Nucleotide is diluted 1:1 with 200 MM MgCl2 to a stock concentration of 100 mM of 1:1 nucleotide:MgCl2. • Cuvette volume=300 μl Methods • 1) Add 281 μl of 1× kinesin buffer, ±nucleotide, and H2O (Nucleotide=none, 1 mM AMPPNP, or 1 mM ADP (final concentration)). • 2) Add 18.75 μl of 4 μM stock nucleotide-free KSP(367H). • 3) Add compound sequentially from DMSO stock (with all the volume of all additions ≦0.6 μl). • 4) Measure fluorescence after each addition (starting with buffer only). • 5) Example titration for Compound 8-1 with KSP(367H)ADP: 281 μl of 1× kinesin buffer+1 mM ADP: • add 250 nM KSP (18.75 μl of 4 uM nucleotide-free stock) • add 1 nM Compound 8-1 (1 nMf) (addition of 0.3 μl of 0.001 mM stock) • add 2 nM Compound 8-1 (3 nMf) (addition of 0.6 μl of 0.001 mM stock) • add 4 nM Compound 8-1 (7 nMf) (addition of 0.12 μl of 0.01 mM stock) • add 3 nM Compound 8-1 (10 nMf) (addition of 0.09 μl of 0.01 mM stock) • add 20 nM Compound 8-1 (30 nMf) (addition of 0.6 μl of 0.01 mM stock) • add 40 nM Compound 8-1 (70 nMf) (addition of 0.12 μl of 0.1 mM stock) • add 30 nM Compound 8-1 (100 nMf) (addition of 0.09 μl of 0.1 mM stock) • add 200 nM Compound 8-1 (300 nMf) (addition of 0.6 μl of 0.1 mM stock) • add 400 nM Compound 8-1 (700 nMf) (addition of 0.12 μl of 1 mM stock) • add 300 nM Compound 8-1 (1000 nMf) (addition of 0.09 μl of 1 mM stock) • add 2000 nM Compound 8-1 (3000 nMf) (addition of 0.6 μl of 1 mM stock). • 6) After each addition, measure steady-state fluorescence under the following conditions: • λex=[…], λem=342-346 nm, band width=3 nm ex/3 nm em, wavelength increment=0.5 nm, integration time=2 s. • 7) Repeat the same titration series: • in the absence of KSP (to determine compound-related background), and in the absence of KSP, but in the presence of 1 μM L-tryptophan (to determine compound-related effects on the amino acid itself). Calculations
At the peak emission wavelength for W127 in KSP(367H) (=344 nm) measure the compound emission in kinesin buffer as a function of [compound]; measure fluorescence of L-tryptophan as a function of [compound]; measure fluorescence of KSP(367H) as a function of [compound]; correct KSP(367H) fluorescence for its decrease over time (due to losses of protein to the cuvette); subtract compound emission from L-tryptophan emission; subtract compound emission from KSP(367H) emission. […]

[1] = in the absence of the nucleotide
[2] = in the presence of ADP or AMPPNP

fluorescence of Trp127 [1]	fluorescence of Trp127 [2]	Structure (SMILES)
does not cause a decrease	dose dependent decrease	CCC(c1nc2sccc2c(=O)n1Cc1ccccc1)N(CCN(C)C)Cc1ccc(Br)cc1 (stereo not drawn) [Compound 8-1, 3-benzyl-2-(1-{(4-bromobenzyl)[2-(dimethylamino)ethyl]amino}propyl)thieno[2,3-d]pyrimidin-4(3H)-one]
does not cause a decrease	dose dependent decrease	CCOC(=O)C1=C(C)NC(=S)NC1c1cccc(O)c1 (single isomer, unassigned; (+)) [Compound 5-2b, (+)-4-(3-Hydroxyphenyl)-6-methyl-2-thioxo-1,2,3,4-tetrahydro-4H-pyrimidin-5-carboxylic acid ethyl ester, reference compound]

Structure (SMILES)	fluorescence of Trp127 [1]	fluorescence of Trp127 [2]
CC(=O)N1N=C(c2ccccc2Cl)CC1c1cccc(O)c1 (stereo not drawn) [Compound 1-7, 3-[1-acetyl-3-(2-chlorophenyl)-4,5-dihydro-1H-pyrazol-5-yl]phenol]	does not cause a decrease	dose dependent decrease

Source: US20060134767A1, “Mitotic kinesin binding site” (priority 2002, published 2006)
